Assay results from patent US20130158075A1, “HETEROCYCLIC COMPOUNDS AS DGAT1 INHIBITORS” (PIRAMAL ENTERPRISES LIMITED, priority 2010, published 2013).

Experiments:
[1] = molecular target: T1, hDGAT1 (Homo sapiens, UniProt O75907); experiment: In-vitro DGAT1 assay with hDGAT1 microsomes from Sf9 cells (14C oleoyl CoA, scintillation counting); type: biochemical; conditions: read-out: Percentage inhibition of hDGAT1
T1 construct: made in house; host or cells: Sf9 insect cells (baculovirus); microsomal fraction
T1 sequence (O75907 1-488): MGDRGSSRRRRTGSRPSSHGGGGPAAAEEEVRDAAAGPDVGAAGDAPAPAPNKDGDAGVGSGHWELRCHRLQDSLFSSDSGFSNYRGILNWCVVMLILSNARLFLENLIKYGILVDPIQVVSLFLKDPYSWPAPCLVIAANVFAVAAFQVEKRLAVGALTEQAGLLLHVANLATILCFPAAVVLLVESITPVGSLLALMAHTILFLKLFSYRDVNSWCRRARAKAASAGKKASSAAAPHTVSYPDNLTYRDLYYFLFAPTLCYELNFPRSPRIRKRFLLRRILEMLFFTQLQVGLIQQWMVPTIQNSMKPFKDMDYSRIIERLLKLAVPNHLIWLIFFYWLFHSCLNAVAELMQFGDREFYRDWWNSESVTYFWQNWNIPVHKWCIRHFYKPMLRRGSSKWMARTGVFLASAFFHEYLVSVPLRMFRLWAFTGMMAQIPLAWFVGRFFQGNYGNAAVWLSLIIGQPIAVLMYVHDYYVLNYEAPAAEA
Summary of the method: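 Radiolabelled triglyceride formation was measured: heptane extracts were scintillation-counted after a 10-min, 37 °C reaction stopped with alkaline ethanol. Enzyme was human DGAT1 in baculovirus-infected Sf9 microsomal membranes; substrates were 14C oleoyl-CoA plus dioleoylglycerol. Runs were duplicated, and inhibition (%) was related to nM compound concentration.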

[2] = tested on: DGAT1 mediated retinyl-ester formation in Caco-2 cells; conditions: cited from earlier work
[3] = molecular target: DGAT2 (Homo sapiens, UniProt Q96PD7); conditions: cited from earlier work
Chain of DGAT2 (Q96PD7 whole entry, species assumed): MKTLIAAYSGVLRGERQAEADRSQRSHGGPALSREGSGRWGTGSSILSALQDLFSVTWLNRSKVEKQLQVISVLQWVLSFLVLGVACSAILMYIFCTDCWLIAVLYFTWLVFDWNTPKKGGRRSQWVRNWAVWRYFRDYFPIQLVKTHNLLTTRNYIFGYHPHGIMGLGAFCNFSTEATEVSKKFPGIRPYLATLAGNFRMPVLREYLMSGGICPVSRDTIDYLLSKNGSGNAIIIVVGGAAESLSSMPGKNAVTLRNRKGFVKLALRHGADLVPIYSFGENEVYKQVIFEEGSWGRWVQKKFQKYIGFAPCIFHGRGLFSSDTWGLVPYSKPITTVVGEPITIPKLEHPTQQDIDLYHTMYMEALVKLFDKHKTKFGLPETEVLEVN

inhibition at 1 µM [1] [%]	Compound	block of DGAT1 mediated retinyl-ester formation [2]	activity against DGAT2 [3]
> 50	CC(C)(CCc1ncc(-c2ccc(NC(=O)Nc3cc(F)c(F)cc3F)cc2)s1)C(=O)NS(=O)(=O)C(F)(F)F [Example 582, 2,2-Dimethyl-N-((trifluoromethyl)sulfonyl)-4-(5-(4-(3-(2,4,5-trifluorophenyl)ureido)phenyl)thiazol-2-yl)butanamide]	–	–
> 50	O=C(Nc1ccc(-c2cnc(C3CCC(C(=O)O)CC3)s2)cc1)Nc1cc(F)c(F)cc1F (centres unmarked) [Example 584, 4-(5-(4-(3-(2,4,5-Trifluorophenyl)ureido)phenyl)thiazol-2-yl)cyclohexane carboxylic acid]	–	–
> 50	CC(C)(O)C1CCC(c2ncc(-c3ccc(NC(=O)Nc4cc(F)c(F)cc4F)cc3)s2)CC1 (centres unmarked) [Example 585, 1-(4-(2-(4-(2-Hydroxypropan-2-yl)cyclohexyl)thiazol-5-yl)phenyl)-3-(2,4,5-trifluorophenyl)urea]	–	–
> 50	CC(C)(N)C1CCC(c2ncc(-c3ccc(NC(=O)Nc4cc(F)c(F)cc4F)cc3)s2)CC1 (centres unmarked) [Example 587, 1-(4-(2-(4-(2-Aminopropan-2-yl)cyclohexyl)thiazol-5-yl)phenyl)-3-(2,4,5-trifluorophenyl)urea]	–	–
> 50	CC(C)(N)C1CCC(c2ncc(-c3ccc(NC(=O)Nc4ccc(F)cc4F)cc3)s2)CC1 (centres unmarked) [Example 589, 1-(4-(2-(4-(2-Aminopropan-2-yl)cyclohexyl)thiazol-5-yl)phenyl)-3-(2,4-difluorophenyl)urea]	–	–
> 50	CC(C)(N)CC1CCC(c2ncc(-c3ccc(NC(=O)Nc4cc(F)c(F)cc4F)cc3)s2)CC1 (centres unmarked) [Example 591, 1-(4-(2-(4-(2-Amino-2-methylpropyl)cyclohexyl)thiazol-5-yl)phenyl)-3-(2,4,5-trifluorophenyl)urea]	–	–
–	CC(C)C(NC(=O)c1ccc(-c2ccc(Nc3nc4ccc(F)cc4s3)cc2)cc1)C(=O)O (centres unmarked) [XP620, 2-(4′-(6-fluorobenzo[d]thiazol-2-ylamino)biphenyl-4-ylcarboxamido)-3-methylbutanoic acid]	able to block	no activity
